Measured values from US11701394B2, “Compositions and methods for treating cholestatic disease” (Seres Therapeutics, Inc., priority 2017, dated 2023).

Assays:
[1] = tested on: FXR; assay: FXR signaling in mice: CYP7A1 (liver) and FGF-15 (ileum) expression
Source text: We therefore tested a dose range of OCA as well as a fixed concentration of CA for their effects on FXR signaling in mice. Ileal and liver FXR signaling was monitored based on the expression of CYP7A1 (liver) and FGF-15 (Ileum).

[2] = biological target: T1, human FXR (Homo sapiens, UniProt Q96RI1); settings: in the presence of 50 uM CDCA
T1 sequence (Q96RI1 262-486 limits assumed): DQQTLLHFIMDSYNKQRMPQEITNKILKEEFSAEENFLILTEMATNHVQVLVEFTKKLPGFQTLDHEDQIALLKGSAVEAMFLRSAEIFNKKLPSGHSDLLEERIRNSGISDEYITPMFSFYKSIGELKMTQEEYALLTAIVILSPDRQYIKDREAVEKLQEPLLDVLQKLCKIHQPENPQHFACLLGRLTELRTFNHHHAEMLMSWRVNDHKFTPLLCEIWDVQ
Procedure: FXR reporter cell assays were performed by Indigo Biosciences as directed by Seres Therapeutics using Indigo's FXR reporter CHO cell line, which expresses an FXR receptor hybrid in which the native N-terminal DNA binding domain (DBD) has been replaced with that of a yeast Gal4 DBD. The reporter gene, firefly luciferase, is functionally linked to a Gal4 upstream activation sequence (UAS). […] Luminescence was determined following incubation with substrate and a detection reagent. In addition, live cell count was determined within the assay using a Live Cell Multiplex (LCM) Assay (Indigo Biosciences).

SMILES	CYP7A1 expression (liver) [1]	FGF-15 levels (ileum) [1]	hFXR activation in combination with CDCA [2]
CC[C@H]1[C@@H](O)[C@@H]2[C@H](CC[C@]3(C)[C@@H]([C@H](C)CCC(=O)O)CC[C@@H]23)[C@@]2(C)CC[C@@H](O)C[C@@H]12 [OCA, obeticholic acid]	dose dependent decrease in CYP7A1 expression	increase in FGF-15 levels	–
C[C@H](CCC(=O)O)[C@H]1CC[C@H]2[C@@H]3[C@H](O)[C@H](O)[C@@H]4C[C@H](O)CC[C@]4(C)[C@H]3CC[C@]12C [HCA, hyocholic acid]	–	–	activated human FXR in a dose-dependent and synergistic manner
C[C@H](CCC(=O)O)[C@H]1CC[C@H]2[C@@H]3[C@H](O)C[C@@H]4C[C@H](O)CC[C@]4(C)[C@H]3C[C@H](O)[C@]12C [cholic acid]	decreased CYP7A1 expression	increased FGF-15 levels in the ileum	–
